Measured values taken from ChEMBL document CHEMBL1201862, “PubChem BioAssay data set” (2004).
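Cultured in 96-well plates, cells were exposed to test compound for 48 hours across five concentrations. Here, GI50 denotes the concentration required for 50% inhibition of growth.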 The source made the active and inactive calls. No stated cut-off is given here; in the data, active = GI50 up to about 1.1 µM and inactive = higher.

What was measured:
Experiment in all cases: inhibition of tumour cell growth, NCI panel, 48 h
CAKI-1 = tested on: CAKI-1
SK-MEL-5 = tested on: SK-MEL-5
OVCAR-5 = tested on: OVCAR-5
MDA-N = tested on: MDA-N
RPMI-8226 = tested on: RPMI-8226
SNB-19 = tested on: SNB-19
SF-295 = tested on: SF-295
CCRF-CEM = tested on: CCRF-CEM
HOP-62 = tested on: HOP-62
HT-29 = tested on: HT-29
IGROV-1 = tested on: IGROV-1
SW-620 = tested on: SW-620
UO-31 = tested on: UO-31
OVCAR-4 = tested on: OVCAR-4
SN12C = tested on: SN12C
KM12 = tested on: KM12
786-0 = tested on: 786-0
DU-145 = tested on: DU-145
LOX IMVI = tested on: LOX IMVI
A549 = tested on: A549
OVCAR-8 = tested on: OVCAR-8
K562 = tested on: K562
SK-OV-3 = tested on: SK-OV-3
RXF 393 = tested on: RXF 393
SR = tested on: SR
T47D = tested on: T47D
HOP-92 = tested on: HOP-92
HL-60 = tested on: HL-60
MOLT-4 = tested on: MOLT-4
COLO 205 = tested on: COLO 205
OVCAR-3 = tested on: OVCAR-3
EKVX = tested on: EKVX
SF-539 = tested on: SF-539
M14 = tested on: M14
NCI-H226 = tested on: NCI-H226
MDA-MB-435 = tested on: MDA-MB-435
HCT-116 = tested on: HCT-116
SNB-75 = tested on: SNB-75
SK-MEL-28 = tested on: SK-MEL-28
HCT-15 = tested on: HCT-15
NCI-H522 = tested on: NCI-H522
MDA-MB-231 = tested on: MDA-MB-231
UACC-62 = tested on: UACC-62
A498 = tested on: A498
NCI-H460 = tested on: NCI-H460
NCI/ADR-RES = tested on: NCI/ADR-RES
Malme-3M = tested on: Malme-3M
Hs-578T = tested on: Hs-578T
SK-MEL-2 = tested on: SK-MEL-2
U-251 = tested on: U-251
NCI-H23 = tested on: NCI-H23
MCF7 = tested on: MCF7
SF-268 = tested on: SF-268
HCC 2998 = tested on: HCC 2998
PC-3 = tested on: PC-3
TK-10 = tested on: TK-10
ACHN = tested on: ACHN
UACC-257 = tested on: UACC-257

O=C(O)CCC(=O)c1ccc(Cl)cc1
GI50 (CAKI-1): > 100 µM (inactive)
GI50 (SK-MEL-5): > 100 µM (inactive)
GI50 (OVCAR-5): > 100 µM (inactive)
GI50 (MDA-N): > 100 µM (inactive)
GI50 (RPMI-8226): > 100 µM (inactive)
GI50 (SNB-19): > 100 µM (inactive)
GI50 (SF-295): > 100 µM (inactive)
GI50 (CCRF-CEM): > 100 µM (inactive)
GI50 (HOP-62): > 100 µM (inactive)
GI50 (HT-29): > 100 µM (inactive)
GI50 (IGROV-1): > 100 µM (inactive)
GI50 (SW-620): > 100 µM (inactive)
GI50 (UO-31): > 100 µM (inactive)
GI50 (OVCAR-4): > 100 µM (inactive)
GI50 (SN12C): > 100 µM (inactive)
GI50 (KM12): > 100 µM (inactive)
GI50 (786-0): > 100 µM (inactive)
GI50 (DU-145): > 100 µM (inactive)
GI50 (LOX IMVI): > 100 µM (inactive)
GI50 (A549): > 100 µM (inactive)
GI50 (OVCAR-8): > 100 µM (inactive)
GI50 (K562): > 100 µM (inactive)
GI50 (SK-OV-3): > 100 µM (inactive)
GI50 (RXF 393): > 100 µM (inactive)
GI50 (SR): > 100 µM (inactive)
GI50 (T47D): > 100 µM (inactive)
GI50 (HOP-92): > 100 µM (inactive)
GI50 (HL-60): > 100 µM (inactive)
GI50 (MOLT-4): > 100 µM (inactive)
GI50 (COLO 205): > 100 µM (inactive)
GI50 (OVCAR-3): > 100 µM (inactive)
GI50 (EKVX): > 100 µM (inactive)
GI50 (SF-539): > 100 µM (inactive)
GI50 (M14): > 100 µM (inactive)
GI50 (NCI-H226): > 100 µM (inactive)
GI50 (MDA-MB-435): > 100 µM (inactive)
GI50 (HCT-116): > 100 µM (inactive)
GI50 (SNB-75): > 100 µM (inactive)
GI50 (SK-MEL-28): > 100 µM (inactive)

Cc1ccc(S(=O)(=O)NC(=O)NCc2ccc(S(N)(=O)=O)cc2)cc1
GI50 (CAKI-1): > 100 µM (inactive)
GI50 (HCT-15): > 100 µM
GI50 (SK-MEL-5): > 100 µM (inactive)
GI50 (OVCAR-5): > 100 µM (inactive)
GI50 (RPMI-8226): > 100 µM (inactive)
GI50 (SNB-19): > 100 µM (inactive)
GI50 (NCI-H522): > 100 µM (inactive)
GI50 (SF-295): > 100 µM (inactive)
GI50 (HOP-62): > 100 µM (inactive)
GI50 (HT-29): > 100 µM (inactive)
GI50 (MDA-MB-231): > 100 µM (inactive)
GI50 (UACC-62): > 100 µM (inactive)
GI50 (A498): > 100 µM (inactive)
GI50 (IGROV-1): > 100 µM (inactive)
GI50 (SW-620): > 100 µM (inactive)
GI50 (UO-31): > 100 µM (inactive)
GI50 (OVCAR-4): > 100 µM (inactive)
GI50 (KM12): > 100 µM (inactive)
GI50 (NCI-H460): > 100 µM (inactive)
GI50 (786-0): > 100 µM (inactive)
GI50 (DU-145): > 100 µM (inactive)
GI50 (NCI/ADR-RES): > 100 µM (inactive)
GI50 (LOX IMVI): > 100 µM (inactive)
GI50 (A549): > 100 µM (inactive)
GI50 (Malme-3M): > 100 µM (inactive)
GI50 (K562): > 100 µM (inactive)
GI50 (Hs-578T): > 100 µM (inactive)
GI50 (SK-OV-3): > 100 µM (inactive)
GI50 (RXF 393): > 100 µM (inactive)
GI50 (SR): > 100 µM (inactive)
GI50 (SK-MEL-2): > 100 µM (inactive)
GI50 (U-251): > 100 µM (inactive)
GI50 (T47D): > 100 µM (inactive)
GI50 (HOP-92): > 100 µM (inactive)
GI50 (NCI-H23): > 100 µM (inactive)
GI50 (MCF7): > 100 µM (inactive)
GI50 (HL-60): > 100 µM (inactive)
GI50 (MOLT-4): > 100 µM (inactive)
GI50 (COLO 205): > 100 µM (inactive)
GI50 (OVCAR-3): > 100 µM (inactive)
GI50 (SF-268): > 100 µM (inactive)
GI50 (HCC 2998): > 100 µM (inactive)
GI50 (EKVX): > 100 µM (inactive)
GI50 (PC-3): > 100 µM (inactive)
GI50 (TK-10): > 100 µM (inactive)
GI50 (ACHN): > 100 µM (inactive)
GI50 (SF-539): > 100 µM (inactive)
GI50 (M14): > 100 µM (inactive)
GI50 (NCI-H226): > 100 µM (inactive)
GI50 (MDA-MB-435): > 100 µM (inactive)
GI50 (HCT-116): > 100 µM (inactive)
GI50 (SNB-75): > 100 µM (inactive)
GI50 (SK-MEL-28): > 100 µM (inactive)

O=C1/C(=C/c2ccccc2)NC(=S)N1CN1CCCCC1
GI50 (HCT-15): > 100 µM
GI50 (SK-MEL-5): > 100 µM (inactive)
GI50 (UACC-257): 16.3 µM (inactive)
GI50 (OVCAR-5): > 100 µM (inactive)
GI50 (MDA-N): > 100 µM (inactive)
GI50 (RPMI-8226): > 100 µM (inactive)
GI50 (SNB-19): > 100 µM (inactive)
GI50 (SF-295): > 100 µM (inactive)
GI50 (CCRF-CEM): > 100 µM (inactive)
GI50 (HOP-62): > 100 µM (inactive)
GI50 (HT-29): > 100 µM (inactive)
GI50 (MDA-MB-231): > 100 µM (inactive)
GI50 (UACC-62): > 100 µM (inactive)
GI50 (A498): 99.5 µM (inactive)
GI50 (IGROV-1): > 100 µM (inactive)
GI50 (SW-620): > 100 µM (inactive)
GI50 (UO-31): > 100 µM (inactive)
GI50 (OVCAR-4): 15 µM (inactive)
GI50 (SN12C): > 100 µM (inactive)
GI50 (KM12): > 100 µM (inactive)
GI50 (786-0): > 100 µM (inactive)
GI50 (DU-145): > 100 µM (inactive)
GI50 (NCI/ADR-RES): > 100 µM (inactive)
GI50 (LOX IMVI): > 100 µM (inactive)
GI50 (A549): > 100 µM (inactive)
GI50 (OVCAR-8): > 100 µM (inactive)
GI50 (K562): > 100 µM (inactive)
GI50 (Hs-578T): > 100 µM (inactive)
GI50 (SK-OV-3): > 100 µM (inactive)
GI50 (SR): > 100 µM (inactive)
GI50 (SK-MEL-2): > 100 µM (inactive)
GI50 (U-251): > 100 µM (inactive)
GI50 (HOP-92): > 100 µM (inactive)
GI50 (NCI-H23): > 100 µM (inactive)
GI50 (MCF7): > 100 µM (inactive)
GI50 (MOLT-4): > 100 µM (inactive)
GI50 (COLO 205): > 100 µM (inactive)
GI50 (OVCAR-3): > 100 µM (inactive)
GI50 (SF-268): > 100 µM (inactive)
GI50 (EKVX): > 100 µM (inactive)
GI50 (PC-3): > 100 µM (inactive)
GI50 (ACHN): > 100 µM (inactive)
GI50 (M14): > 100 µM (inactive)
GI50 (NCI-H226): > 100 µM (inactive)
GI50 (MDA-MB-435): > 100 µM (inactive)
GI50 (HCT-116): > 100 µM (inactive)
GI50 (SNB-75): > 100 µM (inactive)
GI50 (SK-MEL-28): > 100 µM (inactive)
